Test results reported in ChEMBL document CHEMBL4811321, “Synthesis and biological evaluation of 3,4-dihydro-1H-[1,4] oxazepino [6,5,4-hi] indol-1-ones and 4,6-dihydrooxepino [5,4,3-cd] indol-1(3H)-ones as Mycobacterium tuberculosis inhibitors” (Bioorg Med Chem, 2021).
Values after ≈ are worked out from the molar mass of the structure shown.

Assays:
[1] = test system: Mycobacterium tuberculosis; experiment: Antitubercular activity against Mycobacterium tuberculosis mc2 6230 assessed as inhibition of bacterial growth incubated for 7 days by microtiter plate assay; format: functional; conditions: mc2 6230, 168 h, time 7 day
[2] = Displacement of UDP-fluorescein from Mycobacterium tuberculosis UDP-galactopyranose mutase by fluorescence polarization assay

SMILES	MIC [1]	Kd [2]
COc1ccc(/C=C2\Cn3cc(I)c4cccc(c43)C(=O)O2)cc1	> 100 mg/L	
O=C1OC(CSc2ccccc2)Cc2cn(Cc3ccccc3)c3cccc1c23 (stereo not given)	> 100 mg/L	
COc1ccccc1-c1cn(CC2Cc3cn(Cc4ccccc4)c4cccc(c34)C(=O)O2)nn1 (stereo not given)	> 100 mg/L	
O=C1O/C(=C/C#Cc2ccccc2)Cn2cc(I)c3cccc1c32	0.4 mg/L (≈ 0.941 µM)	
CC(C)CCC#C/C=C1\Cn2cc(I)c3cccc(c32)C(=O)O1	0.2 mg/L (≈ 0.477 µM)	
O=C1OC(CI)Cc2cn(Cc3ccccc3)c3cccc1c23 (stereo not given)	12.5 mg/L (≈ 30 µM)	
O=C1OC(Cn2cc(-c3ccccc3F)nn2)Cc2cn(Cc3ccccc3)c3cccc1c23 (stereo not given)	> 100 mg/L	
CCCCc1cn(CC2Cc3cn(Cc4ccccc4)c4cccc(c34)C(=O)O2)nn1 (stereo not given)	> 100 mg/L	
O=C1OC(Cn2cc(CCBr)nn2)Cc2cn(Cc3ccccc3)c3cccc1c23 (stereo not given)	25 mg/L (≈ 53.7 µM)	
COc1cccc(SCC2Cc3cn(Cc4ccccc4)c4cccc(c34)C(=O)O2)c1 (stereo not given)	> 100 mg/L	
O=C1OC(Cn2cc(-c3ccc(F)cc3F)nn2)Cc2cn(Cc3ccccc3)c3cccc1c23 (stereo not given)	> 100 mg/L	
CCOC(=O)CCCc1cn(CC2Cc3cn(Cc4ccccc4)c4cccc(c34)C(=O)O2)nn1 (stereo not given)	> 100 mg/L	
COc1ccc(C#C/C=C2\Cn3cc(I)c4cccc(c43)C(=O)O2)cc1	0.2 mg/L (≈ 0.439 µM)	72.9 µM
CC(C)CCc1cn(CC2Cc3cn(Cc4ccccc4)c4cccc(c34)C(=O)O2)nn1 (stereo not given)	> 100 mg/L	
CCCCCCCc1cn(CC2Cc3cn(Cc4ccccc4)c4cccc(c34)C(=O)O2)nn1 (stereo not given)	> 100 mg/L	
COc1ccc(-c2cn(CC3Cc4cn(Cc5ccccc5)c5cccc(c45)C(=O)O3)nn2)cc1 (stereo not given)	> 100 mg/L	
CCOC(=O)CCCC#C/C=C1\Cn2cc(I)c3cccc(c32)C(=O)O1	0.4 mg/L (≈ 0.863 µM)	
O=C1O/C(=C/I)Cn2cc(I)c3cccc1c32	1.6 mg/L (≈ 3.55 µM)	138 µM
O=C1OC(Cn2cc(C3CC3)nn2)Cc2cn(Cc3ccccc3)c3cccc1c23 (stereo not given)	> 100 mg/L	
O=C1OC(Cn2cc(-c3ccccc3)nn2)Cc2cn(Cc3ccccc3)c3cccc1c23 (stereo not given)	> 100 mg/L	
CN(Cc1cn(CC2Cc3cn(Cc4ccccc4)c4cccc(c34)C(=O)O2)nn1)S(C)(=O)=O (stereo not given)	> 100 mg/L	
CCCCC#C/C=C1\Cn2cc(I)c3cccc(c32)C(=O)O1	0.4 mg/L (≈ 0.987 µM)	
COc1ccccc1SCC1Cc2cn(Cc3ccccc3)c3cccc(c23)C(=O)O1 (stereo not given)	> 100 mg/L	
